Consider one molecule from US10106577B2, “Agonists of neurotrophin receptors and their use as medicaments” (BIONURE FARMA, S.L., priority 2010, dated 2018).

In assay [1] the test system is NGF-receptors (TrkA and p75) on PC12 cells. Briefly: Cytometry binding assay, competition NGF/G79-FITC in PC12. The conditions noted are these: G79-FITC 100 ng/ml; NGF 0-10-20-50-100 ng/ml. The method, then:
(§1) In order to assess the binding of G79 to the TrkA (PC12 cells) and TrkB receptors (SH-SY5Y), we performed competitive binding assays by flow cytometry. In order to assess the binding competition between p75 and TrkA, PC12 cells expressing both TrkA and p75 receptors were cultivated in normal growth medium. After detaching cells by trypsin solution, 200,000 cells/well were added to tubes for the following incubations. One tube contains control untreated cells. In the other tubes, cells were pre-incubated for 45 minutes with different concentrations of NGF (0-10-20-50-100 ng/ml), that can directly bind both TrkA and p75 receptors, blocking the possible binding of G79 if it competes for the same receptors. Then, without washing the cells, G79 conjugated with FITC fluorescence (100 ng/ml) was added and so incubated the cells for 1 hour. Samples were read in a cytometer (FCAScan).
(§2) To detect the binding separately on both receptors, a prior incubation of cells (before NGF incubation) with blocking antibodies was made. The cells were preincubated for 1 hour with blocking antibody anti-p75 (1:100; Chemicon Int.), to detect the binding on TrkA, or blocking antibody anti-TrkA (1:200; AbCam) to detect the binding on p75. […] All the results are expressed as mean channel fluorescence (MCF), which is a measure of the cell surface fluorescence produced by G79-FITC binding.

The next assay deals with T1, TrkA (Rattus norvegicus, UniProt P35739).
T1 construct: PC12 cells expressing both TrkA and p75 receptors were cultivated in normal growth medium; endogenous in cells; host or cells: PC12
T1 sequence (P35739 33-799): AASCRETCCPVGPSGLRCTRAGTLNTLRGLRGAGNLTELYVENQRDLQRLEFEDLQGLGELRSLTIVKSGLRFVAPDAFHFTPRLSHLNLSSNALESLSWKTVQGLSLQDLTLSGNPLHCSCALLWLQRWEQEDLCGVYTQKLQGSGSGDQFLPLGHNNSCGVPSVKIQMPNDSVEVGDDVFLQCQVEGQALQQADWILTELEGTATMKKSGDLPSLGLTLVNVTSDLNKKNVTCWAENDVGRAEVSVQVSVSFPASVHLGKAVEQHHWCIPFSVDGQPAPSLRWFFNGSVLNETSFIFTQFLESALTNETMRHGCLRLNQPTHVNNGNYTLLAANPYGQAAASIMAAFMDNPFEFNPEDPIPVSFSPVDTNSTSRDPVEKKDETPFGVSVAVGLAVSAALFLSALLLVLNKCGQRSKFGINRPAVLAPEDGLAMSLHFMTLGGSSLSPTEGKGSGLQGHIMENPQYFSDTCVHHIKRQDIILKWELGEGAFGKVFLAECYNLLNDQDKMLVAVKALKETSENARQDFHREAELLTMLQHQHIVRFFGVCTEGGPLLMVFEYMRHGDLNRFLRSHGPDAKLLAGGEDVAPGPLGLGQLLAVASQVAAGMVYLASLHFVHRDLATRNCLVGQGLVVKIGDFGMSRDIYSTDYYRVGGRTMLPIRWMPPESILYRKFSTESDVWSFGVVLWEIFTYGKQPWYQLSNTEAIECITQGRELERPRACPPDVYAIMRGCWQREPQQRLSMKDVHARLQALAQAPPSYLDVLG
The experiment in a line: Cytometry binding assay in PC12 with antibody anti-p75. The conditions noted are these: pre-incubation with the antibody anti-p75; growing NGF. The method, then: as §1, §2

Assay [2] deals with TrkB and p75 on SH-SY5Y cells. The experiment in a line: Cytometry binding assay, competition BDNF/G79-FITC in SH-SY5Y. The arrangement: species or system human. The conditions noted are these: growing concentrations of BDNF. The method, then:
as §1, §2

The next assay concerns mice affected by EAE. Briefly: Experimental autoimmune encephalomyelitis (EAE) model of MS. Type of assay: in vivo, C57BL/6 mice. The protocol:
The effect of G79 was tested in the animal model of MS, the experimental autoimmune encephalomyelitis (EAE), by performing a preventive trial (in which the therapy starts at the time of the induction of the disease) and a curative trial (in which the therapy starts when the animals are already suffering from the disease). Female C57BL/6 mice from Harlan (8-12 weeks old) were immunized subcutaneously in both hind pads with 300 μg of myelin oligodendrocyte glycoprotein (MOG) peptide 35-55 (Spikem, Firenze) emulsified with 50 μg of Mycobacterium tuberculosis (H37Ra strain; Difco, Detroit, Mich.) in incomplete Freund's adjuvant (IFA) as previously described in Palacios et al., 2007. The mice were injected intraperitoneally with Pertussis toxin (Sigma) (500 ng) at the time of immunization and 2 days later. The animals were weighted and inspected for clinical signs of disease on a daily basis by a blinded observer. The severity of the disease EAE was assessed for 30 days according to the following scale: 0=normal; 0.5=mild limp tail; 1=limp tail; 2=mild paraparesis of the hind limbs, unsteady gait; 3=moderate paraparesis, voluntary movements still possible; 4=paraplegia or tetraparesis; 5=moribund state. At the end of the study, the mice were anesthetized and perfused intracardially with 4% of paraformaldehyde in 0.1 M phosphate buffer (pH 7.6). The brains, spinal cords and spleens were dissected and either fixed or frozen until use. Also serum was obtained from all the animals included in the study. This procedure was approved by the University of Barcelona Committee on Animal Care.
Two different experiments were performed to assess both the preventive effect and curative effect of G79, compared to other drugs targeting neurotrophin pathway (Gambogic amide and Xaliproden) or one of the first line therapy for the treatment of MS, i.e., Glatiramer acetate.
For the preventive trial, 10 animals were treated with intraperitoneal injection of G79 at the concentration of 40 mg/kg, 10 animals were treated with intraperitoneal injection of G79 at the concentration of 100 mg/kg, 10 animals were treated with intraperitoneal injection of Gambogic amide at the concentration of 2 mg/kg, 10 animals were treated with oral administration of Xaliproden at the concentration of 10 mg/kg. As both Gambogic amide and Xaliproden were diluted with different percentage of DMSO, 5 animals were treated with intraperitoneal injection of placebo (physiologic solution plus 1% DMSO) and other 5 animals were treated with placebo oral (physiologic solution plus 2.5% DMSO), respectively. The treatments were performed daily, starting after the immunization day.
For the curative trial, to reduce the discrepancy between the oral administration and intraperitoneal injections, as stress can deeply affect the development of the clinical scores in animals, all the treatments were performed by intraperitoneal injections. For this study, 8 animals were treated with G79 at the concentration of 40 mg/kg, 8 animals were treated with G79 at the concentration of 100 mg/kg, 8 animals were treated with Gambogic amide at the concentration of 2 mg/kg, 8 animals were treated with Xaliproden at the concentration of 10 mg/kg, 8 animals were treated with Glatiramer acetate at the concentration of 5 mg/kg, 8 animals were treated with placebo (physiologic solution plus 2.5% DMSO). The treatments were performed daily starting after the increase of the clinical score at score 2 (after the second day at this score).

Setting [3] is: preventive trial, 100 mg/Kg i.p.

As to `CC(C)CN(CC(=O)N(CCCN1CCCC1=O)CC(N)=O)C(=O)CNCCc1ccccc1F` [Compound G79, [N-(2-(2′-Fluorophenyl)ethyl)glycyl]-[N-(2-methylpropyl)glycyl]-N-[3-(2′-oxopyrrolidinyl)propyl]glycinamide], the “competition with NGF for binding (MCF of G79-FITC)” value in assay [1] is recorded as “competes for the binding on the same NGF-receptors”. Also, the “binding on TrkA (MCF of G79-FITC)” value at TrkA is listed as “apparently does not compete with NGF for the binding on TrkA”. In addition, in assay [2], the “competition with BDNF for binding (MCF of G79-FITC)” value is reported as “competes with BDNF to one of its receptors”. Besides, the “therapeutic effect in ameliorating the clinical score (in words)” value with mice affected by EAE (curative trial, 100 mg/Kg i.p.) was “best therapeutic effect in ameliorating the clinical score”. Moreover, the clinical score in the assay on mice affected by EAE (curative trial, 100 mg/Kg i.p., 16th day) was found to be 2.8±1.2; in the assay on mice affected by EAE (curative trial, 100 mg/Kg i.p., day 19th) it was 1.75±1; in the assay with mice affected by EAE (curative trial, 100 mg/Kg i.p., day not printed (between day 16th and 23rd)), 1.6±0.8. Besides, the “delaying the disease, comparison of the doses” value with mice affected by EAE (setting [3]) is reported as “more effective in delaying the disease”. The “final clinical score at day 30th” value in the assay with mice affected by EAE (setting [3]) is recorded as “lower compared to placebo treated animals”. Further, the “onset of the disease (clinical score)” value with mice affected by EAE (preventive trial, G79 40 and 100 mg/kg i.p. daily) is reported as “delay in the presence of the disease, although not significant”.
